Test results reported in the CheMixHub drug solubility set.

Experiment: xn = mol fraction of the nth substance listed, in the solute-free solvent

CN1CCN(C2=Nc3cc(Cl)ccc3Nc3ccccc32)CC1 + CN1CCCC1=O + O
solubility (g/100 g solution)
Conditions | x2 = 0.0198 | x2 = 0.04347 | x2 = 0.07228 | x2 = 0.1081 | x2 = 0.1538 | x2 = 0.2143 | x2 = 0.2979 | x2 = 0.421 | x2 = 0.6207
278.15 K | 0.00909 | 0.045 | 0.169 | 0.497 | 1.2 | 2.31 | 3.88 | 5.87 | 7.69
283.15 K | 0.0126 | 0.0614 | 0.224 | 0.65 | 1.5 | 2.92 | 4.64 | 6.96 | 9.05
288.15 K | 0.0173 | 0.0846 | 0.297 | 0.832 | 1.86 | 3.58 | 5.6 | 8.28 | 10.5
293.15 K | 0.0228 | 0.113 | 0.388 | 1.02 | 2.32 | 4.34 | 6.81 | 9.65 | 12
298.15 K | 0.0318 | 0.148 | 0.501 | 1.3 | 2.84 | 5.22 | 7.94 | 11.2 | 13.9
303.15 K | 0.0423 | 0.192 | 0.629 | 1.6 | 3.48 | 6.19 | 9.35 | 12.8 | 15.9
308.15 K | 0.0547 | 0.257 | 0.793 | 2.01 | 4.21 | 7.31 | 10.9 | 14.7 | 18
313.15 K | 0.071 | 0.329 | 1.02 | 2.46 | 5.04 | 8.54 | 12.7 | 16.8 | 20.2
318.15 K | 0.0919 | 0.419 | 1.25 | 2.99 | 5.94 | 9.98 | 14.5 | 19 | 22.5
323.15 K | 0.12 | 0.537 | 1.56 | 3.57 | 6.98 | 11.6 | 16.5 | 21.4 | 25.1
328.15 K | 0.155 | 0.673 | 1.89 | 4.3 | 8.24 | 13.4 | 18.7 | 24 | 28
